From patent US20250101436A1, “APTAMERS AND SMALL MOLECULE LIGANDS” (MeiraGTx UK II Limited, priority 2021, published 2025)

These substances were tested on luciferase gene expression in HEK 293 cells in response to Comp. 004 (assay: Screen of riboswitch constructs with 12C6-1 variant aptamers (libraries N1-N5) against Comp. 004, luciferase in HEK 293 cells). Details: library N5 variant aptamers (L5, X16-X21 randomized) of 12C6-1 in riboswitch constructs; in response to Comp. 004 treatment; HEK 293 cells.
Assay type: cell-based, human
In short: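 Riboswitch constructs carrying 12C6-1 aptamer variants, randomized in J2-4, J2-3/J3-3a/J3a-2/P3, L3a, J4-5/J5-4/P4 or L5 regions (libraries N1-N5), cloned into an intron-exon-intron cassette driving luciferase. Screened in HEK 293 cells with 25 µM Comp. 004; read-out is fold induction of gene expression versus parent Luci-12C6-1.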

Compared with “N5_4D8 (CTGGGGAGTCCT; chemistry not given here)”, “N5_4H7 (CTGGGGAGTCCT; chemistry not given here)” is higher in “Fold (induction of luciferase gene expression)” value (“Fold” below): 565.6 fold for the first, 714.3 fold for the second.

Going from “N5_5B6 (CTGGGGAGTCCT; chemistry not given here)” to “N5_5B7 (CTGGGGAGTCCT; chemistry not given here)”, the “Fold” value rises from 1068.3 fold to 1317.2 fold.

Compared with “N5_5C4 (CTGGGGAGTCCT; chemistry not given here)”, “N5_5D7 (CTGGGGAGTCCT; chemistry not given here)” is lower in “Fold” value: 1235.2 fold for the first, 769.4 fold for the second.

Compared with “N5_5D9 (CTGGGGAGTCCT; chemistry not given here)”, “N5_5E4 (CTGGGGAGTCCT; chemistry not given here)” is higher in “Fold” value: 712.5 fold for the first, 1116.0 fold for the second.

First: N5_6A3 (CTGGGGAGTCCT; chemistry not given here)
Second: N5_6A6 (CTGGGGAGTCCT; chemistry not given here)
The “Fold” value of the first is lower: 696.0 fold for the first, 1024.4 fold for the second.

Compared with “N5_6A8 (CTGGGGAGTCCT; chemistry not given here)”, “N5_6B4 (CTGGGGAGTCCT; chemistry not given here)” is higher in “Fold” value: 1252.2 fold for the first, 1435.7 fold for the second.

Going from “N5_6B6 (CTGGGGAGTCCT; chemistry not given here)” to “N5_6D12 (CTGGGGAGTCCT; chemistry not given here)”, the “Fold” value rises from 659.7 fold to 2318.1 fold.

Going from “N5_6E1 (CTGGGGAGTCCT; chemistry not given here)” to “N5_6E6 (CTGGGGAGTCCT; chemistry not given here)”, the “Fold” value rises from 725.2 fold to 1032.8 fold.

Compared with “N5_6F4 (CTGGGGAGTCCT; chemistry not given here)”, “N5_6F5 (CTGGGGAGTCCT; chemistry not given here)” is higher in “Fold” value: 1226.6 fold for the first, 1665.4 fold for the second.

Going from “N5_6F6 (CTGGGGAGTCCT; chemistry not given here)” to “N5_6G6 (CTGGGGAGTCCT; chemistry not given here)”, the “Fold” value rises from 953.0 fold to 1004.4 fold.

Compared with “N5_6G10 (CTGGGGAGTCCT; chemistry not given here)”, “N5_6H10 (CTGGGGAGTCCT; chemistry not given here)” is higher in “Fold” value: 1262.0 fold for the first, 1466.1 fold for the second.

Going from “N5_7A1 (CTGGGGAGTCCT; chemistry not given here)” to “N5_7A4 (CTGGGGAGTCCT; chemistry not given here)”, the “Fold” value rises from 897.3 fold to 988.3 fold.

Going from “N5_7A5 (CTGGGGAGTCCT; chemistry not given here)” to “N5_7A6 (CTGGGGAGTCCT; chemistry not given here)”, the “Fold” value falls from 785.5 fold to 314.5 fold.

Compared with “N5_7A7 (CTGGGGAGTCCT; chemistry not given here)”, “N5_7A9 (CTGGGGAGTCCT; chemistry not given here)” is lower in “Fold” value: 1226.2 fold for the first, 692.6 fold for the second.

Going from “N5_7A10 (CTGGGGAGTCCT; chemistry not given here)” to “N5_7A11 (CTGGGGAGTCCT; chemistry not given here)”, the “Fold” value falls from 1108.5 fold to 941.2 fold.
